From US10206904B2, “Licofelone derivatives and methods of use” (The Board of Regents of the University of Oklahoma, priority 2015, dated 2019)
Entries after “also recorded” stand apart in the source; their conditions may differ. Read-outs that look alike come from different tables or passages of the source.

Experiments:
[1] = tested on: inflammatory cytokines and receptors; settings: 800 ppm in diet, AOM-induced rat colon tumors
Method: Colonic tumors (CTs) were induced by colon specific carcinogen Azoxymethane (15 mg/kg by wt, once weekly for 2 weeks) in F344 rats at 8 weeks' age. […] Rats were killed 36 weeks after second AOM and analyzed for inflammatory cytokines and receptors and compared with control diet fed rat colonic tumors.

[2] = biological target: T1, 5-LOX (Rattus norvegicus, UniProt P12527); settings: ex vivo colon tumor homogenate
Method: (§1) Briefly, colonic tubular adenocarcinomas (ACs) were homogenized in 100 mM Tris-HCl buffer. […] Reaction mixture incubated for 20 min and ^14C-PGE2, 5-^14C-HETE and other 14-C metabolites were extracted and analyzed by Radio-HPLC according to the previously published work.

[3] = biological target: T2, mPGES-1 (Rattus norvegicus, UniProt Q9JHF3); settings: ex vivo colon tumor homogenate
Method: as §1

[4] = tested on: COX-1/2; settings: ex vivo colon tumor homogenate
Method: as §1

[5] = for Major Organ Toxicity / Ulceration (Grade) Colon / Ulceration (Grade) Small Intestine / Ulceration (Grade) Stomach / Liver enzymes ALKP / Liver enzymes ALT / Liver enzymes AST / Liver enzymes LDH: male C57 mice; for Liver enzymes ALKP / Liver enzymes ALT / Liver enzymes AST / Liver enzymes LDH: Mean ± SEM
Method: Body weights and symptoms of toxicity were recorded twice weekly for 6 weeks. […] All organs were examined grossly for any abnormalities upon necropsy. Livers, kidney, stomach, intestinal tract, and blood were obtained from the animals and analyzed for Liver enzyme profile, GI ulceration, and levels of test agents.
All animals found dead will be necropsied to confirm that the most likely cause of death was due to intestinal ulcerations.

[6] = biological target: T1, 5-LOX; settings: two weeks, male F344 rats
Method: (§2) Male F344 rats at 8 weeks of age treated with AOM (15 mg/Kg BW) and exposed to 2% DSS for three days. […] Further, the inflammation was scored by following below criteria: […]

[7] = biological target: T2, mPGES-1; settings: two weeks, male F344 rats
Method: as §2

[8] = tested on: COX-1/2; settings: two weeks, male F344 rats
Method: as §2

[9] = stored in food cups for seven days
Method: Then aliquots of samples taken from the top, middle and bottom portions of the diets were analyzed for agents homogeneity of the experimental diets. […] Based on this information, frequency of preparation of experimental diets was once a week, and food cups were changed 3 times a week.
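Wherever Major Organ Toxicity is given: gross examination of all organs at necropsy, with liver enzyme profile and GI ulceration assessed in collected tissues and blood.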
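Wherever Ulceration (Grade) Colon is given: gross examination of all organs at necropsy, with liver enzyme profile and GI ulceration assessed in collected tissues and blood.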
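Wherever Ulceration (Grade) Small Intestine is given: gross examination of all organs at necropsy, with liver enzyme profile and GI ulceration assessed in collected tissues and blood.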
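Wherever Ulceration (Grade) Stomach is given: gross examination of all organs at necropsy, with liver enzyme profile and GI ulceration assessed in collected tissues and blood.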

T2 sequence (Q9JHF3 whole entry): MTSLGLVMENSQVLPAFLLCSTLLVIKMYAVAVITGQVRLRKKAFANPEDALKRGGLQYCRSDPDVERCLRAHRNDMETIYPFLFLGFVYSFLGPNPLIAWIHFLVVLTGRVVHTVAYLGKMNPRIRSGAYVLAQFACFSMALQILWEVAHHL
T1 sequence (P12527 whole entry): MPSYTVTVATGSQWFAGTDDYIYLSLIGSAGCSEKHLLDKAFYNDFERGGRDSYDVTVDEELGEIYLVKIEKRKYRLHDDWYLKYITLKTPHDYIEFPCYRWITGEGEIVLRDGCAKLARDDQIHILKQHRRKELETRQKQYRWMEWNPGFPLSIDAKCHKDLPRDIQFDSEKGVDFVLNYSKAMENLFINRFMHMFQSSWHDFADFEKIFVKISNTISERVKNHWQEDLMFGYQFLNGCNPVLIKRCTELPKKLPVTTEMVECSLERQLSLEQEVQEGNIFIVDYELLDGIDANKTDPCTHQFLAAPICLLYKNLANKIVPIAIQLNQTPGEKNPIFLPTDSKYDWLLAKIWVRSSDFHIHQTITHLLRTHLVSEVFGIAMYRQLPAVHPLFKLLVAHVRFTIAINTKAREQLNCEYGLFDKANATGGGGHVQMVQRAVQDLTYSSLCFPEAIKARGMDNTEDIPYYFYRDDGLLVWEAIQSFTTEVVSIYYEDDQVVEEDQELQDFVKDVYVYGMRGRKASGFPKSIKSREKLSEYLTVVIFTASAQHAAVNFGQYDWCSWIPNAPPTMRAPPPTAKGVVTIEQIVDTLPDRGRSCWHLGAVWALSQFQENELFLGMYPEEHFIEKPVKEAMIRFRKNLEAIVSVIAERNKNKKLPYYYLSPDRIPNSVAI

SMILES: CC1(C)Cc2c(-c3ccccc3)c(-c3ccc(Cl)cc3)c(CC(=O)NCC(=O)O)n2C1 [LFA-9, licofelone-glycine]
- inflammatory cytokines and their receptors (PCR array) in colon tumors versus control [1]: significantly decreased
- % of Inhibition from control, 5LOX (5-14C-HETE from 14C-AA) ([2]; 2.5 μM): 27%
- % of Inhibition from control, 5LOX (5-14C-HETE from 14C-AA) ([2]; 5.0 μM): 49%
- % of Inhibition from control, 5LOX (5-14C-HETE from 14C-AA) ([2]; 7.5 μM): 68%
- % of Inhibition from control, 5LOX (5-14C-HETE from 14C-AA) ([2]; 10 μM): 89%
- % of Inhibition from control, 5LOX (5-14C-HETE from 14C-AA) ([2]; 20 μM): 97%
- % of Inhibition from control, mPGES-1 (14C-PGE2 from 14C-PGH2) ([3]; 2.5 μM): 18%
- % of Inhibition from control, mPGES-1 (14C-PGE2 from 14C-PGH2) ([3]; 5.0 μM): 32%
- % of Inhibition from control, mPGES-1 (14C-PGE2 from 14C-PGH2) ([3]; 7.5 μM): 57%
- % of Inhibition from control, mPGES-1 (14C-PGE2 from 14C-PGH2) ([3]; 10 μM): 78%
- % of Inhibition from control, mPGES-1 (14C-PGE2 from 14C-PGH2) ([3]; 20 μM): 83%
- % of Inhibition from control, COX-1/2 (14C-PGs and TXs from 14C-AA) ([4]; 2.5 μM): 4%
- % of Inhibition from control, COX-1/2 (14C-PGs and TXs from 14C-AA) ([4]; 5.0 μM): 9%
- % of Inhibition from control, COX-1/2 (14C-PGs and TXs from 14C-AA) ([4]; 10 μM): 31%
- % of Inhibition from control, COX-1/2 (14C-PGs and TXs from 14C-AA) ([4]; 20 μM): 58%
- Major Organ Toxicity ([5]; 100 ppm in diet, 6 weeks): None
- Ulceration (Grade) Colon ([5]; 100 ppm in diet, 6 weeks): Grade 0
- Ulceration (Grade) Small Intestine ([5]; 100 ppm in diet, 6 weeks): Grade 0
- Ulceration (Grade) Stomach ([5]; 100 ppm in diet, 6 weeks): Grade 0
- Liver enzymes ALKP ([5]; 100 ppm in diet, 6 weeks): 178 ± 32 units/L
- Liver enzymes ALT ([5]; 100 ppm in diet, 6 weeks): 82 ± 15 units/L
- Liver enzymes AST ([5]; 100 ppm in diet, 6 weeks): 75 ± 8.5 units/L
- Liver enzymes LDH ([5]; 100 ppm in diet, 6 weeks): 408 ± 28 units/L
- Major Organ Toxicity ([5]; 200 ppm in diet, 6 weeks): None
- Ulceration (Grade) Colon ([5]; 200 ppm in diet, 6 weeks): Grade 0
- Ulceration (Grade) Small Intestine ([5]; 200 ppm in diet, 6 weeks): Grade 0
- Ulceration (Grade) Stomach ([5]; 200 ppm in diet, 6 weeks): Grade 0
- Liver enzymes ALKP ([5]; 200 ppm in diet, 6 weeks): 184 ± 30 units/L
- Liver enzymes ALT ([5]; 200 ppm in diet, 6 weeks): 98 ± 13 units/L
- Liver enzymes AST ([5]; 200 ppm in diet, 6 weeks): 83 ± 10 units/L
- Liver enzymes LDH ([5]; 200 ppm in diet, 6 weeks): 394 ± 19 units/L
- Major Organ Toxicity ([5]; 400 ppm in diet, 6 weeks): None
- Ulceration (Grade) Colon ([5]; 400 ppm in diet, 6 weeks): Grade 0
- Ulceration (Grade) Small Intestine ([5]; 400 ppm in diet, 6 weeks): Grade 0
- Ulceration (Grade) Stomach ([5]; 400 ppm in diet, 6 weeks): Grade 0
- Liver enzymes ALKP ([5]; 400 ppm in diet, 6 weeks): 187 ± 38 units/L
- Liver enzymes ALT ([5]; 400 ppm in diet, 6 weeks): 93 ± 15 units/L
- Liver enzymes AST ([5]; 400 ppm in diet, 6 weeks): 68 ± 7.5 units/L
- Liver enzymes LDH ([5]; 400 ppm in diet, 6 weeks): 379 ± 29 units/L
- Major Organ Toxicity ([5]; 800 ppm in diet, 6 weeks): None
- Ulceration (Grade) Colon ([5]; 800 ppm in diet, 6 weeks): Grade 0
- Ulceration (Grade) Small Intestine ([5]; 800 ppm in diet, 6 weeks): Grade 0
- Ulceration (Grade) Stomach ([5]; 800 ppm in diet, 6 weeks): Grade 0
- Liver enzymes ALKP ([5]; 800 ppm in diet, 6 weeks): 181 ± 27 units/L
- Liver enzymes ALT ([5]; 800 ppm in diet, 6 weeks): 104 ± 13 units/L
- Liver enzymes AST ([5]; 800 ppm in diet, 6 weeks): 82 ± 11 units/L
- Liver enzymes LDH ([5]; 800 ppm in diet, 6 weeks): 422 ± 43 units/L
- body weight loss or gross histological symptoms of toxicity ([5]; 800 ppm in diet, C57BL/6 mice): do not induce any body weight loss or gross histological symptoms of toxicity
- Major Organ Toxicity ([5]; 1,600 ppm in diet, 6 weeks): Liver
- Ulceration (Grade) Colon ([5]; 1,600 ppm in diet, 6 weeks): Grade 1
- Ulceration (Grade) Small Intestine ([5]; 1,600 ppm in diet, 6 weeks): Grade 0
- Ulceration (Grade) Stomach ([5]; 1,600 ppm in diet, 6 weeks): Grade 1
- Liver enzymes ALKP ([5]; 1,600 ppm in diet, 6 weeks): 288 ± 24 units/L
- Liver enzymes ALT ([5]; 1,600 ppm in diet, 6 weeks): 158 ± 18 units/L
- Liver enzymes AST ([5]; 1,600 ppm in diet, 6 weeks): 132 ± 17 units/L
- Liver enzymes LDH ([5]; 1,600 ppm in diet, 6 weeks): 589 ± 42 units/L
- animals died at the end of six-week exposure ([5]; 1,600 ppm in diet, mice): 3 animals
- colonic ulceration at microscopic level ([5]; 1,600 ppm in diet, mice): Grade 1 to 2
- liver toxicity by gross pathology ([5]; 1,600 ppm in diet, mice): modest liver toxicity
- stomach ulceration at microscopic level ([5]; 1,600 ppm in diet, mice): Grades 2 to 3
- body weight loss as compared to control diet fed mice body weight gain ([5]; 1,600 ppm in diet, six weeks, mice): ~30%
- ulceration ([5]; doses up to 800 ppm in diet): no ulceration
- toxicity and body weight gain ([5]; up to 800 ppm in diet, 6 weeks): does not induce any toxicity; also recorded: did not exhibit toxicity
- AOM-DSS-Induced 5-LOX (colonic mucosa) ([6]; 100 ppm in diet): 14.5%
- AOM-DSS-Induced 5-LOX (colonic mucosa) ([6]; 200 ppm in diet): 22.6%
- AOM-DSS-Induced 5-LOX (colonic mucosa) ([6]; 400 ppm in diet): 63.7%
- AOM-DSS-Induced 5-LOX (colonic mucosa) ([6]; 600 ppm in diet): 74.7%
- AOM-DSS-Induced 5-LOX (colonic mucosa) ([6]; 800 ppm in diet): 88.3%
- AOM-DSS-Induced mPGES-1 (colonic mucosa) ([7]; 100 ppm in diet): 22.6%^
- AOM-DSS-Induced mPGES-1 (colonic mucosa) ([7]; 200 ppm in diet): 33.7%^
- AOM-DSS-Induced mPGES-1 (colonic mucosa) ([7]; 400 ppm in diet): 58%
- AOM-DSS-Induced mPGES-1 (colonic mucosa) ([7]; 600 ppm in diet): 77%
- AOM-DSS-Induced mPGES-1 (colonic mucosa) ([7]; 800 ppm in diet): 83%
- AOM-DSS-Induced COX-1/2 (colonic mucosa) ([8]; 100 ppm in diet): 3.8%
- AOM-DSS-Induced COX-1/2 (colonic mucosa) ([8]; 200 ppm in diet): 8.9%
- AOM-DSS-Induced COX-1/2 (colonic mucosa) ([8]; 400 ppm in diet): 15.7%
- AOM-DSS-Induced COX-1/2 (colonic mucosa) ([8]; 600 ppm in diet): 31.3%
- AOM-DSS-Induced COX-1/2 (colonic mucosa) ([8]; 800 ppm in diet): 42.6%
- stability in diet [9]: > 96%
